{"source": "patent US10792291B2", "about": "“Applications for levonorgestrel in preparing anti-ovarian cancer products” (SHANGHAI JIAO TONG UNIVERSITY, priority 2015, dated 2020)", "format_in_all_cases": "cell-based", "key": {"[1]": {"system": "NCI-H1993 human lung non-small cell carcinoma cells", "assay": "CELLTITER-GLO cell viability assay, NCI-H1993 cells (same method)", "method": "(§1) In the examples below, the product sources for the SKOV-3 ovarian cancer cells, the NCI-H1993 non-small cell human lung cancer cells, and the NCI-H441 human lung adenocarcinoma cells are as follows: In example 1, CELLTITER-GLO was used to test levonorgestrel against ovarian cancer. c) The SKOV-3 96-well cell plates prepared in step 1 were removed from the incubator, and 10 μl of the cell culture media (10× final concentration) with varying drug concentrations as described in b) above was added to the SKOV-3 96-well cell culture plate row-by-row as shown in FIG. 1. It was placed into a CO2 incubator at 37° C. for 72 hours, obtaining the SKOV-3 96-well drug screening plate. The final concentrations (μM) of the analyte drug in wells 2-10 in FIG. 1 are, in order: 100, 31.64557, 10.01442, 3.16912, 1.002886, 0.317369, 0.100433, 0.031783, 0.010058; B. CELLTITER-GLO Luminescent Cell Viability Assay System c) 100 μl of CellTiter-Glo reagent (prepared as described in 1 above) was added to all drug screening plates and mixed evenly. f) An EnSpire multi-function plate reader was used at 570 nm to read the luminescent signals. The same method was used to test levonorgestrel's action on the IC50 values of NCI-H1993 human lung non-small cell carcinoma cells and NCI-H441 human lung adenocarcinoma cells; results are shown in Table 1."}, "[2]": {"system": "SKOV-3 ovarian cancer cells", "assay": "CELLTITER-GLO Luminescent Cell Viability Assay, SKOV-3 ovarian cancer cells", "from_the_text": "In example 1, CELLTITER-GLO was used to test levonorgestrel against ovarian cancer. m) A cell counter was used to count the number of suspended cells and adjust the cell suspension to an appropriate density in the plate to carry out cell plating experiments. n) SKOV-3 cells were handled as described above, and a SKOV-3 96-well cell culture plate was obtained. The complete medium for SKOV-3 cells was McCOY'S 5A (a live product), Cat #16600082, with a cells/well density of 12000. 2. The drug analyte levonorgestrel was prepared and administered (200× final concentration): a) DMSO was used to dilute the analyte levonorgestrel to 20 mM for use. b) 79 μL of the 20 mM analyte prepared in step a) was added to the first well in the first row of the dilution plate, and then 54 μL of DMSO solution was added to the second through ninth wells of the first row. […] The final concentrations (μM) of the analyte drug in wells 2-10 in FIG. 1 are, in order: 100, 31.64557, 10.01442, 3.16912, 1.002886, 0.317369, 0.100433, 0.031783, 0.010058; B. CELLTITER-GLO Luminescent Cell Viability Assay System a) Before testing, the SKOV-3 96-well drug screening plate described in 3 above was stabilized to room temperature for 20-30 minutes. c) 100 μl of CellTiter-Glo reagent (prepared as described in 1 above) was added to all drug screening plates and mixed evenly. d) It was thoroughly oscillated in a 96-well microplate oscillator for 2 minutes to allow the cells to undergo full lysis. e) It was stored away from light at room temperature for 15 minutes before carrying out luminescent signal detection to ensure signal stability. f) An EnSpire multi-function plate reader was used at 570 nm to read the luminescent signals. g) Data was processed and analyzed."}, "[3]": {"system": "NCI-H441 human lung adenocarcinoma cells", "assay": "CELLTITER-GLO cell viability assay, NCI-H441 cells (same method)", "method": "as §1"}}, "data": [{"smiles": "C#C[C@]1(O)CC[C@H]2[C@@H]3CCC4=CC(=O)CC[C@@H]4[C@H]3CC[C@@]21CC", "note": "[levonorgestrel]", "values": [{"measurement": "IC50", "setting": "[1]", "value": "≥ 100", "unit": "µM"}, {"measurement": "IC50", "setting": "[2]; Homo sapiens, SK-OV-3, SKOV-3 cells, 72 hours, CellTiter-Glo", "value": 3.34, "unit": "µM"}, {"measurement": "EC50", "setting": "[2]; Homo sapiens, SK-OV-3, SKOV-3 cells, 72 hours, CellTiter-Glo, FIG. 2", "value": 3.08, "unit": "µM"}, {"measurement": "effect on the proliferation of ovarian cancer cells", "setting": "[2]; compared with NCI-H441 and NCI-H1993 lung cancer cells", "value": "specific inhibitory effect"}, {"measurement": "IC50", "setting": "[3]", "value": "≥ 100", "unit": "µM"}]}]}
